# Test results from patent US20170189504A1, “NOVEL PEPTIDES AND COMBINATION OF PEPTIDES FOR USE IN IMMUNOTHERAPY AGAINST VARIOUS CANCERS” (immatics biotechnologies GmbH, priority 2015, published 2017).
# Columns and labels:
# CD8+ T cells = experiment: In vitro immunogenicity: T-cell priming with aAPCs loaded with peptide/MHC complexes and anti-CD28 antibody, pMHC multimer readout (Tables 19A, 19B); format: cell-based, human; conditions: in vitro immunogenicity of HLA class I peptides, pMHC multimer readout after priming of CD8+ T cells
# Protocol: In an aspect, the peptides are pre-screened for immunogenicity before being included in the warehouse. By way of example, and not limitation, the immunogenicity of the peptides included in the warehouse is determined by a method comprising in vitro T-cell priming through repeated stimulations of CD8+ T cells from healthy donors with artificial antigen presenting cells loaded with peptide/MHC complexes and anti-CD28 antibody.
# In order to obtain information regarding the immunogenicity of the TUMAPs of the present invention, the inventors performed investigations using an in vitro T-cell priming assay based on repeated stimulations of CD8+ T cells with artificial antigen presenting cells (aAPCs) loaded with peptide/MHC complexes and anti-CD28 antibody.
# In order to perform in vitro stimulations by artificial antigen presenting cells loaded with peptide-MHC complex (pMHC) and anti-CD28 antibody, the inventors first isolated CD8+ T cells from fresh HLA-A*02 leukapheresis products via positive selection using CD8 microbeads (Miltenyi Biotec, Bergisch-Gladbach, Germany) of healthy donors obtained from the University clinics Mannheim, Germany, after informed consent.
# PBMCs and isolated CD8+ lymphocytes were incubated in T-cell medium (TCM) until use consisting of RPMI-Glutamax (Invitrogen, Karlsruhe, Germany) supplemented with 10% heat inactivated human AB serum (PAN-Biotech, Aidenbach, Germany), 100 U/ml Penicillin/100 μg/ml Streptomycin (Cambrex, Cologne, Germany), 1 mM sodium pyruvate (CC Pro, Oberdorla, Germany), 20 μg/ml Gentamycin (Cambrex). 2.5 ng/ml IL7 (PromoCell, Heidelberg, Germany) and 10 U/ml IL-2 (Novartis Pharma, Nurnberg, Germany) were also added to the TCM at this step.
# Generation of pMHC/anti-CD28 coated beads, T-cell stimulations and readout was performed in a highly defined in vitro system using four different pMHC molecules per stimulation condition and 8 different pMHC molecules per readout condition.
# The purified co-stimulatory mouse IgG2a anti human CD28 Ab 9.3 (Jung et al., 1987) was chemically biotinylated using Sulfo-N-hydroxysuccinimidobiotin as recommended by the manufacturer (Perbio, Bonn, Germany). Beads used were 5.6 μm diameter streptavidin coated polystyrene particles (Bangs Laboratories, Illinois, USA).
# pMHC used for positive and negative control stimulations were A*0201/MLA-001 (peptide […] (SEQ ID NO. 303) from modified Melan-A/MART-1) and A*0201/DDX5-001 ([…] from DDX5, SEQ ID NO. 304), respectively.
# 800.000 beads/200 μl were coated in 96-well plates in the presence of 4×12.5 ng different biotin-pMHC, washed and 600 ng biotin anti-CD28 were added subsequently in a volume of 200 μl. Stimulations were initiated in 96-well plates by co-incubating […] CD8+ T cells with 2×10^5 washed coated beads in 200 μl TCM supplemented with 5 ng/ml IL-12 (PromoCell) for 3 days at 37° C. Half of the medium was then exchanged by fresh TCM supplemented with 80 U/ml IL-2 and incubating was continued for 4 days at 37° C. This stimulation cycle was performed for a total of three times. For the pMHC multimer readout using 8 different pMHC molecules per condition, a two-dimensional combinatorial coding approach was used as previously described (Andersen et al., 2012) with minor modifications encompassing coupling to 5 different fluorochromes. Finally, multimeric analyses were performed by staining the cells with Live/dead near IR dye (Invitrogen, Karlsruhe, Germany), CD8-FITC antibody clone SK1 (BD, Heidelberg, Germany) and fluorescent pMHC multimers. For analysis, a BD LSRII SORP cytometer equipped with appropriate lasers and filters was used. Peptide specific cells were calculated as percentage of total CD8+ cells. Evaluation of multimeric analysis was done using the FlowJo software (Tree Star, Oreg., USA). In vitro priming of specific multimer+ CD8+ lymphocytes was detected by comparing to negative control stimulations.
# HLA-A*24 = experiment: MHC binding assay, UV-ligand exchange with β2m ELISA, HLA-A*24 (Table 21); set-up: species or system human; conditions: binding to HLA-A*24 ranged by peptide exchange yield (UV-ligand exchange, β2m ELISA)
# Text: Candidate peptides for T cell based therapies according to the present invention were further tested for their MHC binding capacity (affinity). The individual peptide-MHC complexes were produced by UV-ligand exchange, where a UV-sensitive peptide is cleaved upon UV-irradiation, and exchanged with the peptide of interest as analyzed. Only peptide candidates that can effectively bind and stabilize the peptide-receptive MHC molecules prevent dissociation of the MHC complexes. To determine the yield of the exchange reaction, an ELISA was performed based on the detection of the light chain ((β2m) of stabilized MHC complexes. The assay was performed as generally described in Rodenko et al. (Rodenko et al., 2006).
# 96 well MAXISorp plates (NUNC) were coated over night with 2 ug/ml streptavidin in PBS at room temperature, washed 4× and blocked for 1 h at 37° C. in 2% BSA containing blocking buffer. Refolded HLA-A*02:01/MLA-001 monomers served as standards, covering the range of 15-500 ng/ml. Peptide-MHC monomers of the UV-exchange reaction were diluted 100 fold in blocking buffer. Samples were incubated for 1 h at 37° C., washed four times, incubated with 2 ug/ml HRP conjugated anti-β2m for 1 h at 37° C., washed again and detected with TMB solution that is stopped with […]. Absorption was measured at 450 nm. Candidate peptides that show a high exchange yield (preferably higher than 50%, most preferred higher than 75%) are generally preferred for a generation and production of antibodies or fragments thereof, and/or T cell receptors or fragments thereof, as they show sufficient avidity to the MHC molecules and prevent dissociation of the MHC complexes.
# HLA-A*02 = experiment: MHC binding assay, UV-ligand exchange with β2m ELISA, HLA-A*02 (Table 20); set-up: species or system human; conditions: binding to HLA-A*02 ranged by peptide exchange yield (UV-ligand exchange, β2m ELISA)
# Method in brief: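 Peptide–MHC complexes made by UV-ligand exchange of a UV-cleavable peptide, diluted 100-fold and captured on streptavidin plates. Stabilized complexes detected by HRP anti-β2m ELISA (1 h, 37° C, A450). Exchange yield derived against refolded HLA-A*02:01/MLA-001 monomer standards (15-500 ng/ml).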
Substance,Wells positive [%] (CD8+ T cells),Peptide exchange (HLA-A*24),Peptide exchange (HLA-A*02)
197 (EYSLFPGQVVI; listed as Homo sapiens) [compound 197],+ (<20% = +),+++ (50%-75% = +++),–
169 (AYTLIAPNI; listed as Homo sapiens) [compound 169],+++ (50%-69% = +++),+++ (50%-75% = +++),–
176 (EYNQWFTKL; listed as Homo sapiens) [compound 176],+++ (50%-69% = +++),+++ (50%-75% = +++),–
167 (NYINRILKL; listed as Homo sapiens) [compound 167],+ (<20% = +),++++ (≧75% = ++++),–
200 (YYGPSLFLL; listed as Homo sapiens) [compound 200],++ (20%-49% = ++),+++ (50%-75% = +++),–
281 (PYRLIFEKF; listed as Homo sapiens) [compound 281],+++ (50%-69% = +++),++ (20%-49% = ++),–
159 (LYNKGFIYL; listed as Homo sapiens) [compound 159],++++ (≧70% = ++++),++++ (≧75% = ++++),–
204 (TYELRYFQI; listed as Homo sapiens) [compound 204],+ (<20% = +),++++ (≧75% = ++++),–
285 (HYPPVQVLF; listed as Homo sapiens) [compound 285],+ (<20% = +),+++ (50%-75% = +++),–
160 (VYTLDIPVL; listed as Homo sapiens) [compound 160],++ (20%-49% = ++),++++ (≧75% = ++++),–
268 (QYLGQIQHI; listed as Homo sapiens) [compound 268],+ (<20% = +),+++ (50%-75% = +++),–
196 (LYIDRPLPYL; listed as Homo sapiens) [compound 196],++++ (≧70% = ++++),+++ (50%-75% = +++),–
166 (YYVESGKLF; listed as Homo sapiens) [compound 166],+++ (50%-69% = +++),++++ (≧75% = ++++),–
218 (YYKSTSSAF; listed as Homo sapiens) [compound 218],+ (<20% = +),+++ (50%-75% = +++),–
199 (RYAEEVGIF; listed as Homo sapiens) [compound 199],++ (20%-49% = ++),+++ (50%-75% = +++),–
158 (HYSQELSLLYL; listed as Homo sapiens) [compound 158],+ (<20% = +),++++ (≧75% = ++++),–
165 (DYTTWTALL; listed as Homo sapiens) [compound 165],+ (<20% = +),++++ (≧75% = ++++),–
162 (VFTRVSSFL; listed as Homo sapiens) [compound 162],++ (20%-49% = ++),+++ (50%-75% = +++),–

Substance,Wells positive [%] (CD8+ T cells),Peptide exchange (HLA-A*24),Peptide exchange (HLA-A*02)
7 (ILDHEVPSL; listed as Homo sapiens) [compound 7],++ (20%-49% = ++),–,+++ (50%-75% = +++)
249 (GLCERLVSL; listed as Homo sapiens) [compound 249],+ (<20% = +),–,++++ (≧75% = ++++)
168 (KYQDILETI; listed as Homo sapiens) [compound 168],++ (20%-49% = ++),++++ (≧75% = ++++),–
161 (IYLVSIPEL; listed as Homo sapiens) [compound 161],++ (20%-49% = ++),++++ (≧75% = ++++),–
29 (YLLDPSITL; listed as Homo sapiens) [compound 29],+ (<20% = +),–,+++ (50%-75% = +++)
27 (RLMEENWNA; listed as Homo sapiens) [compound 27],+++ (50%-69% = +++),–,+++ (50%-75% = +++)
173 (IYSWILDHF; listed as Homo sapiens) [compound 173],++ (20%-49% = ++),++++ (≧75% = ++++),–
269 (YFIDSTNLKTHF; listed as Homo sapiens) [compound 269],+ (<20% = +),+++ (50%-75% = +++),–
235 (KIIDFLSAL; listed as Homo sapiens) [compound 235],+++ (50%-69% = +++),–,+++ (50%-75% = +++)
150 (VLYDRPLKI; listed as Homo sapiens) [compound 150],++ (20%-49% = ++),–,+++ (50%-75% = +++)
251 (ALSVLRLAL; listed as Homo sapiens) [compound 251],++ (20%-49% = ++),–,+++ (50%-75% = +++)
138 (ALLAKILQI; listed as Homo sapiens) [compound 138],++ (20%-49% = ++),–,+++ (50%-75% = +++)
232 (KIFPAALQLV; listed as Homo sapiens) [compound 232],++ (20%-49% = ++),–,+++ (50%-75% = +++)
14 (ILAKDLFEI; listed as Homo sapiens) [compound 14],++ (20%-49% = ++),–,++++ (≧75% = ++++)
31 (TITETTVEV; listed as Homo sapiens) [compound 31],+ (<20% = +),–,+++ (50%-75% = +++)
233 (HLFDAFVSV; listed as Homo sapiens) [compound 233],++ (20%-49% = ++),–,+++ (50%-75% = +++)
149 (ILNTHITEL; listed as Homo sapiens) [compound 149],+ (<20% = +),–,+++ (50%-75% = +++)
35 (FLLPFSTVYL; listed as Homo sapiens) [compound 35],+ (<20% = +),–,+++ (50%-75% = +++)
